Data published in patent US20040048380A1, “Chimeric vectors and their use for heterologous genes transfer” (priority 2003, published 2004).

Tests used:
HeLa cells [1] = experiment: Phage micropanning, internalization (37° C.), with or without kinase inhibitors; type: cell-based; conditions: Wortammannin 1 μM, ML-7 2 μM, FIG. 4
Text: FIG. 4. Effect of the inhibitors of Wortammanin and ML-7 kinases on cell internalization. 10^12 particles of ΔPb phage (white bars) or of Pb phage (striped bars) are adsorbed on HeLa cells. The internalized phage is recovered and titrated. […] Data are shown as percentages of control enrichments carried out without inhibitors. Th results are average values of three different tests carried out in two series; SD (Standard Deviation) is also shown.
The micropanning on HeLa and CS-1 or CS-1/β3 cells was carried out […] at 4° C. and at 37° C. in order to quantify the bond and the internalization of chimeric phages, respectively. […] The eluates were titrated by ELISA on a plate coated with an anti-M13 antibody detected with anti-pVIII-HRP antibody, using as standard a phage stock with known titer.
Phage internalization was evaluated on cells which have been pre-incubated for 30′ at 37° C. with chlorokine 100 nM (Sigma) alone or together with an inhibitor of PI3K (phosphatidylinositol-3OH kinase), 1 μM Wortammannin (Sigma) or with an inhibitor of myosin light chain kinase ML-7 2 μM hydrochloride (Calbiochem, La Jolla, Calif.). […]
In short, the experiment was carried out as follows: 7.5×10^4 cells/well are plated and incubated with 10^12 chimeric phage particles. The results are expressed as enrichment factors with respect to control phages. […]

HeLa cells [2] = experiment: Transduction efficiency by GFP reporter gene expression (FACS); type: cell-based; conditions: peptide 4.86 μM, molar excess of about 2000 times; FIG. 5b
Procedure: FIG. 5. Chimeric phages transduce eukaryotic cells in a receptor-dependent way. Cells are incubated for 1 hour at 4° C. and for 3 hours at 37° C. with 2×10^13 particles of Pb-GFP phage or ΔPb-GFP phage. After 72 hours said cells are analyzed with FACS. For competition tests they are pre-incubated with GRGDSP or GRGESP peptides (4.86 μM, corresponding to a molar excess of about 2000 times) for 1 hour at 4° C. and then incubated with chimeric phages. Data are analyzed with WinMDI2.8 software. 10^4 cells for each well are counted. a) White bars correspond to ΔPb-GFP phages; b) striped bars correspond to Pb-GFP b) phage.
The expression of GFP reporter gene (Green Fluorescent Protein) was carried out by FACS analysis as follows: 1×10^5 cells (HeLa, Cs-1/β3 or Cs-1) were plated in 6-portion wells. […] After the washings and 72 hours of incubation in fresh medium the expression levels of GFP protein were measured by FACS. The specificity of the measured signal was evaluated also in presence of GRGDSP or GRGESP peptides, pre-incubating the cells for 1 hour, with peptide concentration of 4.86 μM, corresponding to a molar excess of about 2000 times and maintaining said concentrations in the following incubations. 10^4 cells were measured for each sample. […]

Compound | effect of kinase inhibitor on internalization of Pb and ΔPb chimeric phages (HeLa cells [1]) | inhibition of the transduction of HeLa cells by ΔPb-GFP phage (HeLa cells [2])
O=S(=O)(c1cccc2c(I)cccc12)N1CCCNCC1 [ML-7] | not | 
COC[C@H]1OC(=O)c2coc3c2[C@@]1(C)C1=C(C3=O)[C@@H]2CCC(=O)[C@@]2(C)C[C@H]1OC(C)=O [Wortammannin] | inhibited | 
GRGDSP |  | up to 90%
GRGESP |  | not observed
